The text below walks through data of ChEMBL document CHEMBL1201862, “PubChem BioAssay data set” (2004).

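Briefly, cells in 96-well plates were exposed to five compound concentrations for 48 h, and endpoints were estimated by linear interpolation. The concentration for 50% growth inhibition is given as GI50.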 Activity calls are given as the source filed them. Cut-off read from the data, not from the text of the source: active = GI50 up to about 1.1 µM and inactive = higher.

Holding throughout (experiment): NCI-60 cell line screen, 48 h
Experiment [1] relates to BT-549.
Experiment [2] relates to SW-620.
In experiment [3] the test system is 786-0.
The test system of experiment [4] is SN12C.
Experiment [5] relates to SK-MEL-2.
The subject of experiment [6] is M14.
Experiment [7] has as its system CCRF-CEM.
In experiment [8] the test system is MDA-MB-435.
The subject of experiment [9] is RXF 393.
Experiment [10] relates to UACC-257.
Experiment [11] concerns SF-295.
The test system of experiment [12] is A549.
In experiment [13] the test system is MDA-N.
Experiment [14] deals with UACC-62.
Experiment [15] concerns NCI-H460.
Experiment [16] relates to K562.
Experiment [17] deals with U-251.
For experiment [18], the system named is HL-60.
Experiment [19] concerns TK-10.
For experiment [20], the system named is NCI/ADR-RES.

`COc1ccc2[nH]c(C(=O)N3CC(CCl)c4ccc(N)cc43)cc2c1` (stereo not given): the GI50 was 0.412 µM (active) in experiment [1]; 0.173 µM (active) in [2]; 0.233 µM (active) in experiment [3]; 0.347 µM (active) in experiment [4]; 0.199 µM (active) in experiment [5]; 0.146 µM (active) in [6]. For the same compound, the GI50 in [7] was 0.17 µM (active); in [8], 0.264 µM (active); in [9] it was 0.09 µM (active); in experiment [10] it was 0.241 µM (active); in experiment [11], 0.201 µM (active); in [12] it was 0.0964 µM (active). Further, the GI50 in experiment [13] is 0.144 µM (active); in experiment [14] it was 0.141 µM (active); in experiment [15] it was 0.0867 µM (active); in experiment [16], 0.128 µM (active); in [17], 0.313 µM (active); in experiment [18] it was 0.0593 µM (active). For the same compound, the results for the GI50 in [19] and in experiment [20] were 0.37 µM (active) and 0.0912 µM (active), respectively.

Take `CC(=O)n1nc(-c2ccccc2)n(/N=C/c2ccc([N+](=O)[O-])o2)c1=O`: the GI50 is 8.32 µM (inactive) in experiment [1]; 5.87 µM (inactive) in [2]; 2.21 µM (inactive) in experiment [3]; 2.13 µM (inactive) in experiment [4]; 6.97 µM (inactive) in experiment [5]; 1.94 µM (inactive) in experiment [6]. For the same compound, the GI50 was 1.6 µM (inactive) in experiment [7]; 6.5 µM (inactive) in experiment [8]; 5.93 µM (inactive) in [9]; 7.23 µM (inactive) in experiment [10]; 1.66 µM (inactive) in experiment [11]; 7.21 µM (inactive) in experiment [12]. Also, the GI50 in experiment [13] was 1.81 µM (inactive); in experiment [14], 10.4 µM (inactive); in experiment [15] it was 7.06 µM (inactive); in [16] it was 8.83 µM (inactive); in experiment [17], 15.9 µM (inactive); in [18], 3.59 µM (inactive). Also, the figures for the GI50 in [19] and in experiment [20] were 11.5 µM (inactive) and 9.73 µM (inactive), respectively.

In the case of `C/C(=N\N=C1/C(=O)OC(c2ccccc2)=C1C(=O)c1ccccc1)c1ccc([N+](=O)[O-])cc1`, the GI50 was 25.9 µM (inactive) in [1]; 46.7 µM (inactive) in experiment [2]; 68.7 µM (inactive) in [3]; 49.4 µM (inactive) in experiment [4]; > 100 µM (inactive) in experiment [5]; 65.5 µM (inactive) in experiment [6]. Further, the GI50 in [7] is 25.6 µM (inactive); in [8], 46.7 µM (inactive); in experiment [9], 46 µM (inactive); in experiment [10], > 100 µM (inactive); in [11], 45.6 µM (inactive); in [12], 41.7 µM (inactive). Also, the GI50 is 87.9 µM (inactive) in [13]; 38.9 µM (inactive) in [14]; 56.1 µM (inactive) in [15]; 35 µM (inactive) in experiment [16]; 41.5 µM (inactive) in experiment [17]; 35.8 µM (inactive) in experiment [18]. The GI50 was > 100 µM (inactive) in experiment [19] and 60.7 µM (inactive) in experiment [20].

For the compound `N#Cc1c(O)c(/N=N/c2ccccc2F)c(=O)n2c1[nH]c1ccccc12`, the GI50 was 60 µM (inactive) in experiment [1]; 63.2 µM (inactive) in experiment [2]; 43.7 µM (inactive) in experiment [3]; 31.6 µM (inactive) in [4]; 20.9 µM (inactive) in experiment [5]; 22.4 µM (inactive) in experiment [6]. Besides, the GI50 in experiment [7] is 36.8 µM (inactive); in experiment [8], 21.6 µM (inactive); in experiment [9] it was 37.8 µM (inactive); in experiment [10], 33.9 µM (inactive); in experiment [11] it was 33 µM (inactive); in [12] it was 42.5 µM (inactive). Moreover, the GI50 was 22 µM (inactive) in experiment [13]; 20.6 µM (inactive) in experiment [14]; 32.6 µM (inactive) in [15]; 36.3 µM (inactive) in experiment [16]; 32.7 µM (inactive) in experiment [17]; 33 µM (inactive) in [18]. Also, the GI50 in experiment [19] was 55.6 µM (inactive); in [20], 50 µM (inactive).
